From article PMC10604444, “Extra-Synaptic GABAA Receptor Potentiation and Neurosteroid-Induced Learning Deficits Are Inhibited by GR3027, a GABAA Modulating Steroid Antagonist” (Biomolecules, 2023)

Tests used:
[1] = system: male Wistar rats; experiment: AP-induced loss of righting reflex (LoR); assay type: in vivo, rat
Description: Nanomolar concentrations of AP injected intravenously dramatically potentiate the GABA response at the GABAA receptor [1, 20]. […] Under normal circumstances, the righting reflex immediately corrects the orientation of the body when it is outside of its normal upright position, such as that of a rat that is placed on its side. When the rat is awake, it immediately turns around to be standing on its paws when dropped from a low distance above a surface. This ability can be lost with the injection of AP. Twelve male Wistar rats, with a weight of 267–307 g at the test occasion, were included in the study (Taconics, Denmark). The rats were housed at three animals per cage, with a normal day/night light cycle and ad libitum access to food and water (except during the short experiment, approximately 10 min). The week before the study, the animals were handled daily, to avoid stress during the experimental session. The handling included activities used during the test, i.e., holding, tail warming in water, and wrapping in op-blankets. AP (Umecrine AB) and GR3027 (Umecrine Cognition AB) were dissolved at a concentration of 2 mg/mL in 10% 2-hydroxypropyl-β-cyclodextrin (Sigma), respectively, by sonication. To measure the antagonism of AP-induced LoR, GR3027 was mixed with the AP solution at different ratios of AP to GR3027 1: 2.5–1:7.5. […]

[2] = system: male Wistar rats; experiment: Morris water maze (MWM) learning and spatial memory; assay type: in vivo, rat; settings: GR3027 alone 11 mg/kg i.v.
Procedure: Animals: Male Wistar rats were used to study the effect of AP on learning and spatial memory (Scanbur BK, Sweden). The rats were marked on the tail with a permanent spray (Porcimark™) for identification. A 12/12 h light/dark cycle was used (lights off at 18.00 h), food and water were available ad libitum, and the housing room temperature was kept at 22–23 °C. Animal testing was performed during the light part of the day. After arrival at the animal facility, the handling of all rats was performed for two weeks, including habituation to all relevant experimental procedures. […]
Spatial memory: Spatial memory was assessed using the Morris water maze (MWM), as previously described in detail, and in brief as follows. […] MWM parameters (latency, path, swimming speed, floating, and thigmotaxis) were monitored and quantified using the computer tracking system Menu 2020 (HVS Image, UK). […]
Substances and treatments: AP (3α-OH-5α-pregnan-20-one; 2.0 mg/mL; Umecrine AB, Sweden) and GR3027 (3α-ethynyl-3β-hydroxyl-5α-androstan-17-oxime; 2.0 mg/mL; Umecrine Cognition AB, Stockholm, Sweden) were dissolved in 10% 2-hydroxypropyl-beta-cyclodextrin (β-CD; Sigma, St. Louis, MO, USA) using ultrasound. The various combination treatments were then prepared by mixing these solutions in calculated proportions (Table 1). […]

Compound: C#C[C@]1(O)CC[C@@]2(C)[C@@H](CC[C@@H]3[C@@H]2CC[C@]2(C)/C(=N/O)CC[C@@H]32)C1 [GR3027, 3α-ethynyl-3β-hydroxyl-5α-androstan-17-oxime]
- Dosage of GR3027 that antagonizes AP-induced loss of righting reflex ([1]; AP 2 mg/kg i.v., in 10% 2-hydroxypropyl-β-cyclodextrin): 15 mg/kg
- Effect on general condition of the rat ([1]; GR3027 15 mg/kg): did not affect the general condition
- Swim speed vs groups treated with AP or AP:GR3027 combinations ([2]; p < 0.05): lower
- Swim speed vs vehicle group ([2]; p > 0.05): no different
